Experiments:
[1] = GI S9 stability - no PMSF; assay type: in vitro ADME; conditions: pH 7.4; human intestinal S9, PMSF-free; read-out: GIS9-HUMAN-NoPMSF T1/2
Summary of the method: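 Compounds were incubated at 2 μM with PMSF-free intestinal S9 (1 mg/mL protein) in 100 mM PBS, pH 7.4, sampling at 6 time points over 120 min. Parent disappearance and formation of the nucleoside metabolite Reference Compound A were quantified by LC-MS (Q-Exactive) using analyte/internal standard peak area ratios.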

[2] = system: SARS Coronavirus 2 recombinant with NanoLuc (SARS-CoV2-NLuc) in A549-hACE2 cells; assay: microbe, parasite or virus in culture; assay type: cell-based; conditions: A549; read-out: EC50 SARS CoV2 NanoLuc A549 384
[3] = CC50 MT4 cytotoxicity (Cell-Titer Glo); assay type: cell-based; conditions: human
Summary of the method: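 Uninfected MT-4 and HEp-2 cells cultured 4-5 days at 37° C with 3-fold serially diluted compound (15 nM to 100,000 nM). Viability read by Cell-Titer Glo luminescence; untreated and 2 μM puromycin wells set 100% and 0%. CC50 from non-linear regression as concentration reducing viability by 50%.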

[4] = system: Respiratory syncytial virus recombinant with luciferase (RSV-Luc5) in HEp-2 cells; assay: microbe, parasite or virus in culture; assay type: cell-based; conditions: human respiratory syncytial virus, HEp-2, read-out: EC50 RSVFluc-Hep2 384 V2
[5] = system: Caco-2 cells (clone C2BBe1); assay: CACO-2 permeability; assay type: in vitro ADME; design: unit not given here; conditions: for DM Caco2 A to B: apical to basolateral, donor pH 6.5, receiver pH 7.4; for DM Caco2 B to A: basolateral to apical
Summary of the method: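 Caco-2 monolayers grown 21 days on collagen-coated transwells and checked for integrity by TEER. Donor buffer was HBSS/HEPES/glucose pH 6.5 with 200 μM BNPP; receiver was pH 7.4 with BSA. Compounds were dosed apically or basolaterally for A-to-B and B-to-A transport, with receiver sampling at 1 and 2 h, LC-MS/MS analysis and percent recovery.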

[6] = system: Respiratory syncytial virus recombinant with luciferase (RSV-Luc5) in Normal Human Bronchial Epithelial (NHBE) cells; assay: microbe, parasite or virus in culture; assay type: cell-based; conditions: read-out: EC50 RSVFluc-NHBE 384 V2
Plasma stability = assay type: in vitro ADME; design: unit not given here; conditions: 37° C., 2 μM substrate
Summary of the method: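 Reaction mixture was sampled at 0.05, 0.5, 1, 2, 3 and 4 hr into quench solution containing internal standard, then centrifuged and diluted with water. Remaining analyte was measured by LC-MS on a Q-Exactive using a formic acid/acetonitrile gradient, with 5 ppm mass tolerance.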

COc1ccc(CCOC(=O)OC[C@H]2O[C@@](C#N)(c3ccc4c(N)ncnn34)[C@H](O)[C@@H]2O)cc1 [Compound 112, ((2R,3S,4R,5R)-5-(4-aminopyrrolo[2,1-f][1,2,4]triazin-7-yl)-5-cyano-3,4-dihydroxytetrahydrofuran-2-yl)methyl (4-methoxyphenethyl) carbonate]
half-life at 2 µM [1]: 106 s
EC50 [2]: 2110 nM
CC50 [3]: > 50000 nM
EC50 [4]: 181 nM
DM Caco2 A to B [5]: 2.53
DM Caco2 B to A [5]: 15.81
logD (physchem): 1.8
EC50 [6]: 454 nM
STA Human Plasma 37 (Plasma stability): 28.8

CC1(COC(=O)OC[C@H]2O[C@@](C#N)(c3ccc4c(N)ncnn34)[C@H](O)[C@@H]2O)CC1 [Compound 114, ((2R,3S,4R,5R)-5-(4-aminopyrrolo[2,1-f][1,2,4]triazin-7-yl)-5-cyano-3,4-dihydroxytetrahydrofuran-2-yl)methyl ((1-methylcyclopropyl)methyl) carbonate]
half-life at 2 µM [1]: 72.7 s
EC50 [2]: 1120 nM
CC50 [3]: > 50000 nM
EC50 [4]: 123 nM
DM Caco2 A to B [5]: 2.07
DM Caco2 B to A [5]: 11.26
logD (physchem): 1.5
EC50 [6]: 966 nM
STA Human Plasma 37 (Plasma stability): 26.8

CC1=CCC(C(C)(C)OC(=O)OC[C@H]2O[C@@](C#N)(c3ccc4c(N)ncnn34)[C@H](O)[C@@H]2O)CC1 (stereo partly drawn) [Compound 155, ((2R,3S,4R,5R)-5-(4-aminopyrrolo[2,1-f][1,2,4]triazin-7-yl)-5-cyano-3,4-dihydroxytetrahydrofuran-2-yl)methyl (2-(4-methylcyclohex-3-en-1-yl)propan-2-yl) carbonate]
half-life at 2 µM [1]: 4650 s
EC50 [2]: 3190 nM
CC50 [3]: > 50000 nM
EC50 [4]: 1570 nM
DM Caco2 A to B [5]: 3.06
DM Caco2 B to A [5]: 10.35
logD (physchem): 2.8
EC50 [6]: 1120 nM
STA Human Plasma 37 (Plasma stability): 1584

N#C[C@@]1(c2ccc3c(N)ncnn23)O[C@H](COC(=O)OCC2(c3ccccc3)CC2)[C@@H](O)[C@H]1O [Compound 116, ((2R,3S,4R,5R)-5-(4-aminopyrrolo[2,1-f][1,2,4]triazin-7-yl)-5-cyano-3,4-dihydroxytetrahydrofuran-2-yl)methyl ((1-phenylcyclopropyl)methyl) carbonate]
half-life at 2 µM [1]: 37.8 s
EC50 [2]: 822 nM
CC50 [3]: > 50000 nM
EC50 [4]: 321 nM
DM Caco2 A to B [5]: 4.18
DM Caco2 B to A [5]: 17.53
logD (physchem): 2.1
EC50 [6]: 864 nM
STA Human Plasma 37 (Plasma stability): 26.4

CC1(C)CC(COC(=O)OC[C@H]2O[C@@](C#N)(c3ccc4c(N)ncnn34)[C@H](O)[C@@H]2O)C1 [Compound 117, ((2R,3S,4R,5R)-5-(4-aminopyrrolo[2,1-f][1,2,4]triazin-7-yl)-5-cyano-3,4-dihydroxytetrahydrofuran-2-yl)methyl ((3,3-dimethylcyclobutyl)methyl) carbonate]
half-life at 2 µM [1]: 37 s
EC50 [2]: 778 nM
CC50 [3]: > 50000 nM
EC50 [4]: 494 nM
DM Caco2 A to B [5]: 6.18
DM Caco2 B to A [5]: 10.53
logD (physchem): 2.3
EC50 [6]: 1380 nM
STA Human Plasma 37 (Plasma stability): 86

CCCCCCCCCCOC(=O)OC[C@H]1O[C@@](C#N)(c2ccc3c(N)ncnn23)[C@H](O)[C@@H]1O [Compound 124, ((2R,3S,4R,5R)-5-(4-aminopyrrolo[2,1-f][1,2,4]triazin-7-yl)-5-cyano-3,4-dihydroxytetrahydrofuran-2-yl)methyl decyl carbonate]
half-life at 2 µM [1]: 44.6 s
EC50 [2]: 1140 nM
CC50 [3]: 27600 nM
EC50 [4]: 723 nM
DM Caco2 A to B [5]: 0.08
DM Caco2 B to A [5]: 7.35
logD (physchem): 3.7
EC50 [6]: 625 nM
STA Human Plasma 37 (Plasma stability): 192.3

CC1(COC(=O)OC[C@H]2O[C@@](C#N)(c3ccc4c(N)ncnn34)[C@H](O)[C@@H]2O)CCCC1 [Compound 123, ((2R,3S,4R,5R)-5-(4-aminopyrrolo[2,1-f][1,2,4]triazin-7-yl)-5-cyano-3,4-dihydroxytetrahydrofuran-2-yl)methyl ((1-methylcyclopentyl)methyl) carbonate]
half-life at 2 µM [1]: 36.9 s
EC50 [2]: 1160 nM
CC50 [3]: > 50000 nM
EC50 [4]: 720 nM
DM Caco2 A to B [5]: 3.18
DM Caco2 B to A [5]: 9.88
logD (physchem): 2.2
EC50 [6]: 1810 nM
STA Human Plasma 37 (Plasma stability): 96.5

N#C[C@@]1(c2ccc3c(N)ncnn23)O[C@H](COC(=O)OC23CC4CC(CC(C4)C2)C3)[C@@H](O)[C@H]1O [Compound 154, (3S,5S,7S)-adamantan-1-yl (((2R,3S,4R,5R)-5-(4-aminopyrrolo[2,1-f][1,2,4]-triazin-7-yl)-5-cyano-3,4-dihydroxytetrahydrofuran-2-yl)methyl) carbonate]
half-life at 2 µM [1]: 16700 s
EC50 [2]: 34000 nM
CC50 [3]: > 50000 nM
EC50 [4]: 11700 nM
DM Caco2 A to B [5]: 2.08
DM Caco2 B to A [5]: 14.67
logD (physchem): 2.6
EC50 [6]: 11000 nM
STA Human Plasma 37 (Plasma stability): 1584

N#CCC1(COC(=O)OC[C@H]2O[C@@](C#N)(c3ccc4c(N)ncnn34)[C@H](O)[C@@H]2O)CC1 [Compound 119, ((2R,3S,4R,5R)-5-(4-aminopyrrolo[2,1-f][1,2,4]triazin-7-yl)-5-cyano-3,4-dihydroxytetrahydrofuran-2-yl)methyl ((1-(cyanomethyl)cyclopropyl)methyl) carbonate]
half-life at 2 µM [1]: 179 s
EC50 [2]: 8820 nM
CC50 [3]: > 50000 nM
EC50 [4]: 2200 nM
DM Caco2 A to B [5]: 0.07
DM Caco2 B to A [5]: 1.91
logD (physchem): 0.9
EC50 [6]: 2190 nM
STA Human Plasma 37 (Plasma stability): 40.7

N#C[C@@]1(c2ccc3c(N)ncnn23)O[C@H](COC(=O)OCC2CC(F)(F)C2)[C@@H](O)[C@H]1O [Compound 115, ((2R,3S,4R,5R)-5-(4-aminopyrrolo[2,1-f][1,2,4]triazin-7-yl)-5-cyano-3,4-dihydroxytetrahydrofuran-2-yl)methyl ((3,3-difluorocyclobutyl)methyl) carbonate]
half-life at 2 µM [1]: 34.9 s
EC50 [2]: 1760 nM
CC50 [3]: > 50000 nM
EC50 [4]: 228 nM
DM Caco2 A to B [5]: 0.91
DM Caco2 B to A [5]: 8.32
logD (physchem): 1.4
EC50 [6]: 990 nM
STA Human Plasma 37 (Plasma stability): 41.2

N#C[C@@]1(c2ccc3c(N)ncnn23)O[C@H](COC(=O)OCC2(C(F)(F)F)CC2)[C@@H](O)[C@H]1O [Compound 120, ((2R,3S,4R,5R)-5-(4-aminopyrrolo[2,1-f][1,2,4]triazin-7-yl)-5-cyano-3,4-dihydroxytetrahydrofuran-2-yl)methyl ((1-(trifluoromethyl)cyclopropyl)methyl) carbonate]
half-life at 2 µM [1]: 36.3 s
EC50 [2]: 1410 nM
CC50 [3]: > 50000 nM
EC50 [4]: 816 nM
DM Caco2 A to B [5]: 0.77
DM Caco2 B to A [5]: 8.35
logD (physchem): 1.6
EC50 [6]: 1260 nM
STA Human Plasma 37 (Plasma stability): 38.7

— patent US12448383B2, “Compounds and methods for treatment of viral infections” (priority 2022, dated 2025)
